Measured values published in article PMC8026324, “In Vitro Antiplasmodial, Heme Polymerization, and Cytotoxicity of Hydroxyxanthone Derivatives” (Journal of Tropical Medicine, 2021).

How the values were obtained:
[1] = test system: P. falciparum strain 3D-7; parameters: method as in doi:10.22159/ajpcr.2017.v10i12.19858; conditions: cited from earlier work; for IC50: read-out: antiplasmodial IC50 on P. falciparum strain 3D-7
[2] = test system: Plasmodium falciparum 3D-7 (chloroquine-sensitive strain); assay: In vitro antiplasmodial activity assay, microscopic method, strain 3D-7; assay type: cell-based; conditions: for IC50: 72 hours incubation, microscopic method, read-out: IC50 on P. falciparum 3D-7; for antiplasmodial activity category on P. falciparum 3D-7: category by IC50
Method: (§1) The test of antiplasmodial activity began with the culture of P. falciparum 3D-7 and FCR-3 using the modified Trager and Jensen method. The plasmodium was cultured in human O red blood cells diluted to 3% haematocrit in RPMI 1640 medium complemented with 10% human O serum. The medium was made by adding 10.43 g of powder RPMI 1640, 6 g HEPES, 2 g NaHCO3, 25 mg gentamycin, and sterile distilled water up to 1 L. The medium pH was adjusted so that it reached ±7.2. It was sterilized using a 0.22 μm filter and stored at 4°C. The complete plasmodium culture medium was made by adding human serum with a concentration of 10% in the medium. The plasmodium culture was incubated in candle jar in an incubator with a temperature of 37°C and was observed every 24 hours.
(§2) The plasmodium was synchronized to obtain the ring stage by adding 5% of D-sorbitol. The plasmodium was transferred from culture flask to a conical tube, and then it was centrifuged with a speed of 1000 rpm for 10 minutes. After the supernatant was disposed, the sterile 5% sorbitol was added and incubated for 10 minutes at a temperature of 37°C. The plasmodium suspension was centrifuged again; the supernatant was disposed and the plasmodium was washed by adding culture medium. Then, the plasmodium suspension was centrifuged again, and the supernatant was discarded, resulting in a plasmodium in ring stage only. The parasitemia was calculated from a thin blood preparation. The test used 1% parasitemia at 2% haematocrit in RPMI medium which complemented with 10% human O serum.
(§3) Each testing compound was dissolved in RPMI medium. The testing compound in various concentrations with volume of 100 μL was incorporated into the 96-well microplate, and then 100 μL of Plasmodium suspension was added. Each series of concentrations was replicated three times. The microplate was incubated at a temperature of 37°C for 72 hours. At the end of the incubation, a thin blood smear was made using 10% Giemsa stain and observed under a light microscope at 1000x magnification. The percentage of parasitemia (counting a minimum of 1,000 erythrocytes) was calculated from the preparation of thin blood and then used to calculate the percentage of plasmodium growth inhibition. […] Antiplasmodial activity is expressed as IC50, which is the concentration of a compound that is required for 50% inhibition of plasmodium growth. The IC50 value was calculated by probit analysis using SPSS software (IBM Corp., Chicago). The lower the IC50 value obtained, the greater the antiplasmodial activity.

[3] = test system: Plasmodium falciparum FCR-3 (chloroquine-resistant strain); assay: In vitro antiplasmodial activity assay, microscopic method, strain FCR-3; assay type: cell-based; conditions: for IC50: 72 hours incubation, microscopic method, read-out: IC50 on P. falciparum FCR-3; for antiplasmodial activity category on P. falciparum FCR-3: category by IC50
Method: as §1, §2, §3

Vero cells = assay: In vitro cytotoxicity test, MTT assay on Vero cell line; assay type: cell-based; conditions: for IC50: MTT assay; for Selectivity index 3D-7: ratio IC50 on Vero cell/IC50 on P. falciparum 3D-7; for Selectivity index FCR-3: ratio IC50 on Vero cell/IC50 on P. falciparum FCR-3
Method: The in vitro cytotoxicity test was conducted using the 3-(4,5-dimethylthiazol-2-yl)2,5-diphenyltetrazolium bromide (MTT) assay method on Vero cell line culture using the Anderson et al.'s modified method.
The cell was removed from the cryo medium. Then, the cell was thawed at 37°C. The liquid cell was subsequently transferred to the tube and a culture medium was added to a volume of 10 mL. Then, the suspension was centrifuged for 15 minutes so that it would form cell pellets. The supernatant was removed and 1 mL of culture medium was added to the cell pellets. Finally, the suspension was transferred to the Petri dish and incubated in the incubator with 5% of CO2 at 37°C.
The medium of Vero cell culture was removed, and then the cell was washed using a PBS solution with a volume of PBS ± 1/2 of the initial medium volume. This step was done twice and 1 mL of trypsin 0.25% was added. Subsequently, the cell was incubated in the CO2 incubator at 37°C for 3 minutes. Then, the cell was resuspended using 2 mL of culture medium and PBS solution was added up to 10 mL. The suspension was centrifuged for 15 minutes so that it formed pellets. Pellets were added with 1 mL of culture medium and resuspended. Take 10 μL of the cell suspension and density of cells was calculated.
Then, the cell was added with culture medium to 10 mL. A total of 100 μL of such suspensions was transferred into each well of the 96-well microplate, but three of the wells were emptied as medium controls. Subsequently, the microplate was incubated in a 5% CO2 incubator at 37°C.
Each hydroxyxanthone derivative compound was dissolved in DMSO, and a variety of concentrations were prepared in the medium. Each concentration of the testing compound was added into the 96-well microplate triplicately. Cell control and medium control were not given a testing compound solution. The medium control remained blank, while the cell control contained culture medium only. […] Then, the cell was incubated in a 5% CO2 incubator at 37°C for 24 hours.
After the cell was incubated for 24 hours, the medium was discarded and washed with PBS. Then, each well was added with 100 μL of 5 mg/mL of MTT solution. The 96-well microplate was incubated again in the incubator of CO2 at 37°C for 4 hours. Then, 100 μL of 10% of SDS in 0.01 MHCl was added. The cells were placed in a dark room at room temperature for 24 hours.
The absorbance was measured using the enzyme-linked immunosorbent assay (ELISA) reader at 595 nm wavelength. The cytotoxicity test on the Vero cells was done by calculating the percentage of Vero cell inhibition of the absorption value of the test compound, cell control, and medium control. The cytotoxic effect was expressed as IC50. The IC50 value was obtained from the probit analysis by using SPSS software (IBM Corp., Chicago). The degree of selectivity was expressed as a selectivity index. The selectivity index was obtained from the ratio between the IC50 cytotoxic effect on Vero cells and IC50 antiplasmodial activity on Plasmodium. A compound is said to be safe if the value of the selectivity index is >10 [20].

MCF-7 = test system: MCF-7; parameters: method as in earlier work; conditions: cited from earlier work
WIDR = test system: WIDR; parameters: method as in earlier work; conditions: cited from earlier work
Hela = test system: Hela; parameters: method as in earlier work; conditions: cited from earlier work
heme polymerization = test system: heme polymerization; parameters: method as in PMID 9199506; conditions: cited from earlier work
[4] = Chlorocebus sabaeus, Vero, 24 h, 24 hours incubation

Molecule: O=c1c2cc(O)ccc2oc2ccc(O)cc12 [2,7-dihydroxyxanthone]
- IC50 [1]: 1.34 µM

Molecule: O=c1c2ccccc2oc2ccc(O)cc12 [2-hydroxyxanthone]
- antiplasmodial IC50 [1]: 4.385 µg/mL
- IC50 [1]: 20.7 µM

Molecule: O=c1c2cccc(Cl)c2oc2cccc(O)c12 [HX4, 1-hydroxy-5-chloroxanthone]
- inhibition at 50.68 µM ([2]; Plasmodium falciparum, 50.68 μM, read-out: Growth inhibition of P. falciparum Strain 3D-7): 46.5 ± 0.8%
- inhibition at 101.36 µM ([2]; Plasmodium falciparum, 101.36 μM, read-out: Growth inhibition of P. falciparum Strain 3D-7): 50.96 ± 0.361%
- inhibition at 202.71 µM ([2]; Plasmodium falciparum, 202.71 μM, read-out: Growth inhibition of P. falciparum Strain 3D-7): 57.1 ± 1.57%
- inhibition at 405.43 µM ([2]; Plasmodium falciparum, 405.43 μM, read-out: Growth inhibition of P. falciparum Strain 3D-7): 64.51 ± 0.418%
- inhibition at 810.86 µM ([2]; Plasmodium falciparum, 810.86 μM, read-out: Growth inhibition of P. falciparum Strain 3D-7): 74 ± 0.923%
- IC50 ([2]; Plasmodium falciparum): 85.3 ± 4.87 µM
- antiplasmodial activity category on P. falciparum 3D-7 [2]: moderate (moderate (IC50 20–100 μM))
- inhibition at 50.68 µM ([3]; Plasmodium falciparum, FCR3, 50.68 μM, read-out: Growth inhibition of P. falciparum Strain FCR-3): 47.4 ± 0.736%
- inhibition at 101.36 µM ([3]; Plasmodium falciparum, FCR3, 101.36 μM, read-out: Growth inhibition of P. falciparum Strain FCR-3): 49.8 ± 3.36%
- inhibition at 202.71 µM ([3]; Plasmodium falciparum, FCR3, 202.71 μM, read-out: Growth inhibition of P. falciparum Strain FCR-3): 56.4 ± 3.79%
- inhibition at 405.43 µM ([3]; Plasmodium falciparum, FCR3, 405.43 μM, read-out: Growth inhibition of P. falciparum Strain FCR-3): 61.2 ± 3.02%
- inhibition at 810.86 µM ([3]; Plasmodium falciparum, FCR3, 810.86 μM, read-out: Growth inhibition of P. falciparum Strain FCR-3): 72.9 ± 1.34%
- IC50 ([3]; Plasmodium falciparum, FCR3): 89.9 ± 7.69 µM
- antiplasmodial activity category on P. falciparum FCR-3 [3]: moderate (moderate (IC50 20–100 μM))
- IC50 (Vero cells; 24 hours incubation): 331 µM
- IC50 (Vero cells; [4]): 335 µM
- inhibition at 63.25 µM (Vero cells; Chlorocebus sabaeus, Vero, 24 h, 63.25 μM, read-out: Vero cell growth inhibition after 24 hours incubation): 19%
- inhibition at 126.49 µM (Vero cells; Chlorocebus sabaeus, Vero, 24 h, 126.49 μM, read-out: Vero cell growth inhibition after 24 hours incubation): 32.5%
- inhibition at 253.39 µM (Vero cells; Chlorocebus sabaeus, Vero, 24 h, 253.39 μM, read-out: Vero cell growth inhibition after 24 hours incubation): 43.2%
- inhibition at 506.78 µM (Vero cells; Chlorocebus sabaeus, Vero, 24 h, 506.78 μM, read-out: Vero cell growth inhibition after 24 hours incubation): 54.4%
- inhibition at 1013.57 µM (Vero cells; Chlorocebus sabaeus, Vero, 24 h, 1013.57 μM, read-out: Vero cell growth inhibition after 24 hours incubation): 68.9%
- inhibition at 2027.14 µM (Vero cells; Chlorocebus sabaeus, Vero, 24 h, 2027.14 μM, read-out: Vero cell growth inhibition after 24 hours incubation): 90%
- IC50 (Vero cells; Chlorocebus sabaeus, Vero): 82.6 µg/mL
- Selectivity index 3D-7 (Vero cells): 3.88
- Selectivity index FCR-3 (Vero cells): 3.68
- cytotoxicity on MCF-7 (in words) (MCF-7): weak
- cytotoxicity on WIDR (in words) (WIDR): weak
- cytotoxicity on Hela (in words) (Hela): weak

Molecule: Cc1c(O)ccc2c(=O)c3c(O)cccc3oc12 [HX5, 1,6-dihydroxy-5-methylxanthone]
- inhibition at 20.64 µM ([2]; Plasmodium falciparum, 20.64 μM, read-out: Growth inhibition of P. falciparum Strain 3D-7): 37.9 ± 0.441%
- inhibition at 41.28 µM ([2]; Plasmodium falciparum, 41.28 μM, read-out: Growth inhibition of P. falciparum Strain 3D-7): 45 ± 0.563%
- inhibition at 82.56 µM ([2]; Plasmodium falciparum, 82.56 μM, read-out: Growth inhibition of P. falciparum Strain 3D-7): 54.2 ± 1.57%
- inhibition at 165.13 µM ([2]; Plasmodium falciparum, 165.13 μM, read-out: Growth inhibition of P. falciparum Strain 3D-7): 75.4 ± 1.29%
- inhibition at 330.25 µM ([2]; Plasmodium falciparum, 330.25 μM, read-out: Growth inhibition of P. falciparum Strain 3D-7): 93.3 ± 0.956%
- IC50 ([2]; Plasmodium falciparum): 46.69 ± 0.29 µM
- antiplasmodial activity category on P. falciparum 3D-7 [2]: moderate (moderate (IC50 20–100 μM))
- inhibition at 20.64 µM ([3]; Plasmodium falciparum, FCR3, 20.64 μM, read-out: Growth inhibition of P. falciparum Strain FCR-3): 33.63 ± 0.327%
- inhibition at 41.28 µM ([3]; Plasmodium falciparum, FCR3, 41.28 μM, read-out: Growth inhibition of P. falciparum Strain FCR-3): 41.14 ± 0.396%
- inhibition at 82.56 µM ([3]; Plasmodium falciparum, FCR3, 82.56 μM, read-out: Growth inhibition of P. falciparum Strain FCR-3): 46.5 ± 0.816%
- inhibition at 165.13 µM ([3]; Plasmodium falciparum, FCR3, 165.13 μM, read-out: Growth inhibition of P. falciparum Strain FCR-3): 73.5 ± 1.6%
- inhibition at 330.25 µM ([3]; Plasmodium falciparum, FCR3, 330.25 μM, read-out: Growth inhibition of P. falciparum Strain FCR-3): 84.7 ± 0.902%
- IC50 ([3]; Plasmodium falciparum, FCR3): 59.7 ± 0.78 µM
- antiplasmodial activity category on P. falciparum FCR-3 [3]: moderate (moderate (IC50 20–100 μM))
- IC50 (Vero cells; 24 hours incubation): 418 µM
- IC50 (Vero cells; [4]): 459 µM
- inhibition at 64.4 µM (Vero cells; Chlorocebus sabaeus, Vero, 24 h, 64.40 μM, read-out: Vero cell growth inhibition after 24 hours incubation): -5.19%
- inhibition at 128.8 µM (Vero cells; Chlorocebus sabaeus, Vero, 24 h, 128.80 μM, read-out: Vero cell growth inhibition after 24 hours incubation): 27.9%
- inhibition at 258.01 µM (Vero cells; Chlorocebus sabaeus, Vero, 24 h, 258.01 μM, read-out: Vero cell growth inhibition after 24 hours incubation): 37.8%
- inhibition at 516.02 µM (Vero cells; Chlorocebus sabaeus, Vero, 24 h, 516.02 μM, read-out: Vero cell growth inhibition after 24 hours incubation): 48.3%
- inhibition at 1032.03 µM (Vero cells; Chlorocebus sabaeus, Vero, 24 h, 1032.03 μM, read-out: Vero cell growth inhibition after 24 hours incubation): 68.1%
- inhibition at 2064.07 µM (Vero cells; Chlorocebus sabaeus, Vero, 24 h, 2064.07 μM, read-out: Vero cell growth inhibition after 24 hours incubation): 88.8%
- IC50 (Vero cells; Chlorocebus sabaeus, Vero): 111 µg/mL
- Selectivity index 3D-7 (Vero cells): 8.94
- Selectivity index FCR-3 (Vero cells): 6.99
- cytotoxicity on MCF-7 (in words) (MCF-7): weak
- cytotoxicity on WIDR (in words) (WIDR): weak
- cytotoxicity on Hela (in words) (Hela): weak

Molecule: pentaacetylxanthone
- heme polymerization inhibitory activity (in words) (heme polymerization): inactive

Molecule: pentametoxyxanthone
- heme polymerization inhibitory activity (in words) (heme polymerization): inactive
